# Reference: ChEMBL document CHEMBL3886358, “Quinolyl-containing hydroxamic acid compound and preparation method thereof, and pharmaceutical composition containing this compound and use thereof” (2015)
# Tests used:
# [1] = molecular target: T1, Histone deacetylase 7 (Homo sapiens, UniProt Q8WUI4); assay: (§1) Inhibition Assay: The inhibitions of activities of HDAC enzymes by the compounds N1'-[3-fluoro-4-[[7-[4-(hydroxyamino)-4-oxobutoxy]-6-methoxy-4-quinolyl]oxy]phenyl]-N1-(4-fluoro phenyl)cyclopropane-1,1-dicarboxamide prepared in Example 9 and N1'-[3-fluoro-4-[[7-[6-(hydroxyamino)-6-oxohexyloxy]-6-methoxy-4-quinolyl]oxy]phenyl]-N1-(4-fluo rophenyl)cyclopropane-1,1-dicarboxamide prepared in Example 13 were measured by Reaction Biology Corporation (Reaction Biology Corp., One Great Valley Parkway, Suite 2, Malvern, PA 19355, USA . http://www.reactionbiology.com/pages/hdac.htm). The HDAC enzymes tested include the following 11 HDAC isoforms: HDAC1, HDAC2, HDAC3, HDAC4, HDAC5, HDAC6, HDAC7, HDAC8, HDAC9, HDAC10 and HDAC11.Specific steps were as follows: The compound of the present invention was dissolved in dimethyl sulfoxide (DMSO) to make a stock solution of 10 mM. The stock solution was diluted in 4-fold series starting from 10 mM to prepare 10 different dosages.
# T1 sequence (Q8WUI4 whole entry): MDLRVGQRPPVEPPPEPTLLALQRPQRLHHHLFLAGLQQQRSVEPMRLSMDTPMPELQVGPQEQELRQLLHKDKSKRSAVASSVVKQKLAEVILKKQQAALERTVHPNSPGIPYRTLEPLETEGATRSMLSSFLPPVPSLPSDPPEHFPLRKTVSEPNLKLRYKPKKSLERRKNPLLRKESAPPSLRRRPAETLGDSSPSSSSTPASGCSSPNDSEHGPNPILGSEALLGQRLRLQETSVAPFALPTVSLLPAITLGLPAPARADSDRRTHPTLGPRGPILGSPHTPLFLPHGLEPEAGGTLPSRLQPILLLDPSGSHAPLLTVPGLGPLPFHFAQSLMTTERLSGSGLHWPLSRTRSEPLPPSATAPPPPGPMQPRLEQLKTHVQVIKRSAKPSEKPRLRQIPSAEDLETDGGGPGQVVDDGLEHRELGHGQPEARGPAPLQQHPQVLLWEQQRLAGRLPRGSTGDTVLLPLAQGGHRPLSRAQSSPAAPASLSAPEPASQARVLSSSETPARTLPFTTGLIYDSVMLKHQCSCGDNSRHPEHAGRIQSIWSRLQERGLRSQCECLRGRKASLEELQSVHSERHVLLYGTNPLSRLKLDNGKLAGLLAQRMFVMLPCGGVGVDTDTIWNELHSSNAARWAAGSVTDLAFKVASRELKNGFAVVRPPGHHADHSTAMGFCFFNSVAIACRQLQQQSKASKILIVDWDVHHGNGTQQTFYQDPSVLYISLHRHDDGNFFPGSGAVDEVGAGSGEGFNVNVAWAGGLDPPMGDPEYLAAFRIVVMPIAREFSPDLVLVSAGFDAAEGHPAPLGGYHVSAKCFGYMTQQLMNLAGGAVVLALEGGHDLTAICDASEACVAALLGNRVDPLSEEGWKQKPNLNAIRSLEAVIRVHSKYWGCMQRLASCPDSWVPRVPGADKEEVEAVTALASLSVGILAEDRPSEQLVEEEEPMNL
# [2] = molecular target: T2, Histone deacetylase 8 (Homo sapiens, UniProt Q9BY41); assay: as §1
# T2 sequence (Q9BY41 whole entry): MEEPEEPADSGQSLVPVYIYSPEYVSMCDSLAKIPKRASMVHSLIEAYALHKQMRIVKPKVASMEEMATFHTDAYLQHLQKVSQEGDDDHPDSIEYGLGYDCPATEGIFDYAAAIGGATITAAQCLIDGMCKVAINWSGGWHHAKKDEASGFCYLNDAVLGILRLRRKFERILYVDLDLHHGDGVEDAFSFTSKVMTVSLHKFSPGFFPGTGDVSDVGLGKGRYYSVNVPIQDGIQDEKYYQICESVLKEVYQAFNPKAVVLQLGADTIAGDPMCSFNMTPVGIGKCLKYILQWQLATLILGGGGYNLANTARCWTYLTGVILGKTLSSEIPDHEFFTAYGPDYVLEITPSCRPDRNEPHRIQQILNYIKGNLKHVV
# [3] = molecular target: T3, Tyrosine-protein kinase receptor UFO (Homo sapiens, UniProt P30530); assay: (§2) Sci. USA 1988, 85(23), 9312). Specific steps were as follows: The compound of the present invention was dissolved in dimethyl sulfoxide (DMSO) to make a stock solution of 2 mM, then the stock solution was diluted with DMSO following a 7 half-log series to concentrations ranging from 2 uM to 600 pM.; assay type: cell-based
# T3 sequence (P30530 whole entry): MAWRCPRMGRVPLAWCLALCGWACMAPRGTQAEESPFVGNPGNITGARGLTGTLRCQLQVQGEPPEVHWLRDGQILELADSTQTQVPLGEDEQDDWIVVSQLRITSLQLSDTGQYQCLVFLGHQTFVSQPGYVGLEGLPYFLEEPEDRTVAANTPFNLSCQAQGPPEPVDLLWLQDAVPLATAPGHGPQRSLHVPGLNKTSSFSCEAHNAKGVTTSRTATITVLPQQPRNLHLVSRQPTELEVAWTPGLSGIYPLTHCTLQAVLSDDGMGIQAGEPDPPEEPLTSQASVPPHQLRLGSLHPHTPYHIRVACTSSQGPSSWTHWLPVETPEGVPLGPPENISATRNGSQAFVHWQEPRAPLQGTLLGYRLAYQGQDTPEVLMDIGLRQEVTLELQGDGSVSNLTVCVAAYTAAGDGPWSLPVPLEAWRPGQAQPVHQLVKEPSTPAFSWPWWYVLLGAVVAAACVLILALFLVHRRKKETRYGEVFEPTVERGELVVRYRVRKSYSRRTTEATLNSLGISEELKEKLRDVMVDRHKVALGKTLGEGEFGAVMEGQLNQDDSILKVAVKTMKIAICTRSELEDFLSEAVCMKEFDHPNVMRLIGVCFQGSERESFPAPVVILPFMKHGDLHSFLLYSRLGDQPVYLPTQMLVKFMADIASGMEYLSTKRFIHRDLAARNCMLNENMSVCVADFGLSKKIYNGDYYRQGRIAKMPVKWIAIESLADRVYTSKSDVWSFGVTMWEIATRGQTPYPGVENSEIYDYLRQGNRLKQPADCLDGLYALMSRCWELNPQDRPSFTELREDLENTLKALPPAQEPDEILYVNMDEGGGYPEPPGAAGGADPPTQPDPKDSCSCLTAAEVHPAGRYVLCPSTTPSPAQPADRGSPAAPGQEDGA
# [4] = molecular target: Hepatocyte growth factor receptor (Homo sapiens, UniProt P08581); assay: as §2; assay type: cell-based
# [5] = molecular target: ALK tyrosine kinase receptor (Homo sapiens, UniProt Q9UM73); assay: as §2; assay type: cell-based
# [6] = molecular target: Platelet-derived growth factor receptor beta (Homo sapiens, UniProt P09619); assay: as §2; assay type: cell-based
# [7] = molecular target: Proto-oncogene tyrosine-protein kinase Src (Homo sapiens, UniProt P12931); assay: as §2; assay type: cell-based
# [8] = molecular target: Proto-oncogene tyrosine-protein kinase receptor Ret (Homo sapiens, UniProt P07949); assay: as §2; assay type: cell-based
# [9] = molecular target: Vascular endothelial growth factor receptor 2 (Homo sapiens, UniProt P35968); assay: as §2; assay type: cell-based
# Vascular endothelial growth factor receptor 2, sequence (P35968 whole entry): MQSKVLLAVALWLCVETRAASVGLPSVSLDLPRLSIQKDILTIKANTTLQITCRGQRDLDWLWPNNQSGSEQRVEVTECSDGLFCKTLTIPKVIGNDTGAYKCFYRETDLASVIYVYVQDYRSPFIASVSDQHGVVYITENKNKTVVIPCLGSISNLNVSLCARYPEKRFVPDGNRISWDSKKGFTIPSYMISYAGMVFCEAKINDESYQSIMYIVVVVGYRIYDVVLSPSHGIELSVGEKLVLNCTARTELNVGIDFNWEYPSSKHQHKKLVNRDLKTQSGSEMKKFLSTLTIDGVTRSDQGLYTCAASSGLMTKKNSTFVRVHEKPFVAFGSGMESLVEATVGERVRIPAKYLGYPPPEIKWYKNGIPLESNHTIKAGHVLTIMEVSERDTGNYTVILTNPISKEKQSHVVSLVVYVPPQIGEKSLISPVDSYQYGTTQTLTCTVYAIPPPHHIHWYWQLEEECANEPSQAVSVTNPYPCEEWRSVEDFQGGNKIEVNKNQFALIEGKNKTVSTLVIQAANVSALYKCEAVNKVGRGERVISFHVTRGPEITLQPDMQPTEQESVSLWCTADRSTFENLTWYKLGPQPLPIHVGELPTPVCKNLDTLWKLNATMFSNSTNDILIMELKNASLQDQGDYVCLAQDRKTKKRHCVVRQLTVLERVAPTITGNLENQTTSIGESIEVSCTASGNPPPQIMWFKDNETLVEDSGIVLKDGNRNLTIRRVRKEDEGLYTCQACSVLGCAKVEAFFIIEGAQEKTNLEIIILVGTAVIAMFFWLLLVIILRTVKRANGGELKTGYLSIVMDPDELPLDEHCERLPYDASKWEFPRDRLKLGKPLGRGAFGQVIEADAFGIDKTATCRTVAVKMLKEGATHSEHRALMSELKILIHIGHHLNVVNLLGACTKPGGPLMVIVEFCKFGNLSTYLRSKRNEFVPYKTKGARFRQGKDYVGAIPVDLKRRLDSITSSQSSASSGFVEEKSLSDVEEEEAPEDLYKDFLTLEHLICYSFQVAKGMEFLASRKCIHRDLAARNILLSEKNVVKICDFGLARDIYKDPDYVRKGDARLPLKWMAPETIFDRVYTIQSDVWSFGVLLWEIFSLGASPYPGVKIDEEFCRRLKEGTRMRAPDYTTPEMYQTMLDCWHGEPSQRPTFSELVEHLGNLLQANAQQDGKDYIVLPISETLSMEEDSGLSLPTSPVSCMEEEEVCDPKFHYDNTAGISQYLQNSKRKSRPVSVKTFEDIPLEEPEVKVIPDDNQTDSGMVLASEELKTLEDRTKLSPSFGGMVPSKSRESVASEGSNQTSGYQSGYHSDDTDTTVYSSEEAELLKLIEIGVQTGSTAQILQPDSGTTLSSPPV
# Proto-oncogene tyrosine-protein kinase receptor Ret, sequence (P07949 whole entry): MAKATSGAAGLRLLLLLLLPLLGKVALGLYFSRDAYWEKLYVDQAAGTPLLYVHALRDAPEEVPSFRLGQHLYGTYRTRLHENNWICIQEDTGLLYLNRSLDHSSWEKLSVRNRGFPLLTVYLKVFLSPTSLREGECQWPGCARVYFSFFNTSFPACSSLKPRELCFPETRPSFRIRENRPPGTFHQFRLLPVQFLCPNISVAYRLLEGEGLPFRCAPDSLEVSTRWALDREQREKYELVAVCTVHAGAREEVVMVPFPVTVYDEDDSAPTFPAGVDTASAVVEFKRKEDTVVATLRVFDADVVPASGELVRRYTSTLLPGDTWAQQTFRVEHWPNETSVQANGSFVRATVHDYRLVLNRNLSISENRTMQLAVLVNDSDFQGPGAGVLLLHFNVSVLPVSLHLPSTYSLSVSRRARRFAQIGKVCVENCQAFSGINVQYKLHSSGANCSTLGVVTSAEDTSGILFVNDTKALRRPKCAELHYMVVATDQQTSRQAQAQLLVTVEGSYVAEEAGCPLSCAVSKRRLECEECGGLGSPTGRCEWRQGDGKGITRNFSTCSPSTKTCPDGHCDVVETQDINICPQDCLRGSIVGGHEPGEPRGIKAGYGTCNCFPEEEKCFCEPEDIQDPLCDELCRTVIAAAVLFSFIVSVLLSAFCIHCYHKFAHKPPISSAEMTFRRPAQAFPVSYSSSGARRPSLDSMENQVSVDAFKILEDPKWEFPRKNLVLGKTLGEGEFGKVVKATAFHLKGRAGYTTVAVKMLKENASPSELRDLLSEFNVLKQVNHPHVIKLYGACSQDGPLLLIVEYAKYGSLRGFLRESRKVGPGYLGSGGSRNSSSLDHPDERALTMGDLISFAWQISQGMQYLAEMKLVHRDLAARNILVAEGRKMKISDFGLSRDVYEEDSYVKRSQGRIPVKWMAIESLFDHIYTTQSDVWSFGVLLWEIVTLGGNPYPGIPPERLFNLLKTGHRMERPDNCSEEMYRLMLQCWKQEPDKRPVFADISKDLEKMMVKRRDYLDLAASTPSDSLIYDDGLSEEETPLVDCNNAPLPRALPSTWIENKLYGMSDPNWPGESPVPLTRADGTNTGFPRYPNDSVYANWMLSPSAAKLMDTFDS
# Hepatocyte growth factor receptor, sequence (P08581 whole entry): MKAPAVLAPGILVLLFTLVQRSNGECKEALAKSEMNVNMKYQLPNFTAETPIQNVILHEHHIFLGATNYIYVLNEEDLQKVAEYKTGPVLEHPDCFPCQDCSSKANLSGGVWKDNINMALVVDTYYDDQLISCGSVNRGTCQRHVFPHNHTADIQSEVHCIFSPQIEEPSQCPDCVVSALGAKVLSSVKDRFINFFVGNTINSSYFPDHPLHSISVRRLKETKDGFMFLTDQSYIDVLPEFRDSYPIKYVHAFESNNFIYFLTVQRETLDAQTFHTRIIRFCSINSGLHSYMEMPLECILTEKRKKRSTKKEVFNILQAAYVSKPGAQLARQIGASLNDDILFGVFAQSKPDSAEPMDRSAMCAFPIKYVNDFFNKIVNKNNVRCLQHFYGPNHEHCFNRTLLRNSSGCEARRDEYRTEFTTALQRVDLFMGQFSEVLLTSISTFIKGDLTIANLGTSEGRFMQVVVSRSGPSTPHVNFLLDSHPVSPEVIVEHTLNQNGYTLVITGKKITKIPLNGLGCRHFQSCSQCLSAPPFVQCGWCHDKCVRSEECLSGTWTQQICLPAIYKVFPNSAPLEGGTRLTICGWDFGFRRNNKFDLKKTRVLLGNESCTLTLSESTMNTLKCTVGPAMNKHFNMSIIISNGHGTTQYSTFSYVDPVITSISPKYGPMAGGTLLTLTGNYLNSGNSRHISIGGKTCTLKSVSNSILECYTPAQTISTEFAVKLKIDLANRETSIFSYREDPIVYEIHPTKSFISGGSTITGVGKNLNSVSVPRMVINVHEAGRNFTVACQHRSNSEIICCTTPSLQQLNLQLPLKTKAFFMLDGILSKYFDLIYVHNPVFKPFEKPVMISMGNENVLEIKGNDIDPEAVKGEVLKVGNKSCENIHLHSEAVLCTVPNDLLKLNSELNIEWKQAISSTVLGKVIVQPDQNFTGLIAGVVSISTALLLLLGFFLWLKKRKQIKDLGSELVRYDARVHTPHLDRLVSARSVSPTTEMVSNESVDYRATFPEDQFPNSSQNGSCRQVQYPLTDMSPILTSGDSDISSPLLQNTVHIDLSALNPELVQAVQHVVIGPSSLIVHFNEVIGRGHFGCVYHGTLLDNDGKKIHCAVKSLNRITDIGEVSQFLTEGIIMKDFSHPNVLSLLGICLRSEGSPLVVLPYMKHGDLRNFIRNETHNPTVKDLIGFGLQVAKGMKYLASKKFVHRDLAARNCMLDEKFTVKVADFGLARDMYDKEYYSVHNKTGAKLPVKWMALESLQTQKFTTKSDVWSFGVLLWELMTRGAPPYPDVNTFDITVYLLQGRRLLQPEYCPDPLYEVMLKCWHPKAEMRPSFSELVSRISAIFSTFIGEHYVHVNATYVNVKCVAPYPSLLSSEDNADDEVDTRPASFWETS
# Proto-oncogene tyrosine-protein kinase Src, sequence (P12931 2-536 limits assumed): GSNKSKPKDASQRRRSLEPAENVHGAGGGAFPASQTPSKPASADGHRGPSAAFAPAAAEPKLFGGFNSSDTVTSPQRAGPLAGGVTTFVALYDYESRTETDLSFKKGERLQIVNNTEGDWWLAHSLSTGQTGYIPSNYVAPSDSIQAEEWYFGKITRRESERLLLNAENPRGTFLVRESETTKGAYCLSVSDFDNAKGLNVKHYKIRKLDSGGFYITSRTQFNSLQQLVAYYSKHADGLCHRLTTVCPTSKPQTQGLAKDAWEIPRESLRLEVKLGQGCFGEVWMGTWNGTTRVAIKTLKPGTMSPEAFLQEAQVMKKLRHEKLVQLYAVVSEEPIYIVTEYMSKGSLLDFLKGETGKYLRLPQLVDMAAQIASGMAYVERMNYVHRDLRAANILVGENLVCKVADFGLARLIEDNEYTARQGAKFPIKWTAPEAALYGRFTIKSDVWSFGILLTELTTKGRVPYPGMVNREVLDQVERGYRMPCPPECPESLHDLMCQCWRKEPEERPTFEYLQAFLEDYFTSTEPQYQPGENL
IC50 [3],IC50 [4],IC50 [5],IC50 [6],IC50 [7],IC50 [8],IC50 [9],SMILES,IC50 [1],IC50 [2]
–,–,–,–,–,–,–,COc1cc2c(Oc3ccc(NC(=O)C4(C(=O)Nc5ccc(F)cc5)CC4)cc3F)ccnc2cc1OCCCCCC(=O)NO,> 10000 nM,1630 nM
19 nM,119 nM,> 630 nM,172 nM,> 630 nM,154 nM,12 nM,COc1cc2c(Oc3ccc(NC(=O)C4(C(=O)Nc5ccc(F)cc5)CC4)cc3F)ccnc2cc1OCCCC(=O)NO,> 10000 nM,8940 nM
